Legend:
gastric acid secretion [1] = conditions: on a molar basis; cited from earlier work
gastric blood flow = gastric blood flow by 86Rb distribution in rats; type: in vivo, rat; conditions: 1 mg/kg/hr i.v. infusion, 86RbCl at 30 min, mean ± S.E.M., 5 animals per group; saline 1.20 ± 0.05
Description: The effect of the octapeptide on gastric blood flow was established by the following procedure:
Rats weighing 280-350 gms were used. Rats were anesthatized with 50 mg/kg Nembutal and their left jugular veins cannulated. Somatostatin, 1 mg/kg/hr, was infused i.v. in one group of rats while a second group received a saline infusion. In a second experiment the octapeptide of the method of this invention, 1 mg/kg, or saline was injected s.c. Thirty minutes following the start of the experiment 20 μCi/rat of ^86 RbCl was injected i.v. The rats were killed 20 seconds later by injection of 0.5 ml Nembutal. The blood flow to the stomach was determined by counting ^86 Rb in the disected stomachs of the rats.

gastric acid secretion [2] = conditions: dose as high as 2 μm/kg, s.c.; cited from earlier work

For `CSCCC(NC(=O)C(Cc1c[nH]c2ccccc12)NC(=O)CNC(=O)C(Cc1ccc(O)cc1)NC(=O)C(C)NC(=O)C(CCC(=O)O)NC(=O)C(CCC(=O)O)NC(=O)C(CCC(=O)O)NC(=O)[C@H](CCC(=O)O)NC(=O)[C@H](CCC(=O)O)NC(=O)[C@H](CC(C)C)NC(=O)[C@H](Cc1c[nH]c2ccccc12)NC(=O)[C@@H]1CCCN1C(=O)CNC(=O)[C@@H](N)CCC(=O)O)C(=O)NC(CC(=O)O)C(=O)NC(Cc1ccccc1)C(N)=O` (stereo in doubt) [gastrin], the “potency as stimulant of gastric acid secretion relative to histamine” value (gastric acid secretion [1]) is listed as 1,500 times.
With `C[C@H](N)C(=O)NCC(=O)N[C@H]1CSSC[C@@H](C(=O)O)NC(=O)[C@H](CO)NC(=O)[C@H]([C@@H](C)O)NC(=O)[C@H](Cc2ccccc2)NC(=O)[C@H]([C@@H](C)O)NC(=O)[C@H](CCCCN)NC(=O)[C@H](Cc2c[nH]c3ccccc23)NC(=O)[C@H](Cc2ccccc2)NC(=O)[C@H](Cc2ccccc2)NC(=O)[C@H](CC(N)=O)NC(=O)[C@H](CCCCN)NC1=O` [somatostain, somatostatin] the “% total 86Rb in stomach” value (gastric blood flow) was 1.03 ± 0.05%.
For D-Lys^6 -SRIF, the “effect on gastric acid secretion” value (gastric acid secretion [2]) is given as “no appreciable effect”.

From patent publication US4443434A, “Antiulcer agent” (American Home Products Corporation, priority 1982, dated 1984)
